This is an account of results in patent US20030170296A1, “Transdermal drug delivery system” (priority 2000, published 2003).

SMILES strings stand for the structures.

The conditions of series [1]: male, CD1 hairless, mouse, 24 h, pH 7.4.
The conditions of series [2]: single application of hydrogel disc system to skin; neonates with apnea; cited from earlier work.
Series [3] can be described thus: Pharmacokinetic study of transdermal APAP in rats. In kind it is in vivo, rats (Sprague-Dawley). The settings on record: 100 mg APAP enhancer-containing transdermal system vs regular 100 mg patch, n=6 per group (FIG. 3). Here is the method:
Methodology: Anesthetized (15 mg/kg pentobarbital sodium i.p.) rats (Sprague-Dawley, 500-600 g), were placed on their back, the abdominal hair was trimmed off, and the skin was washed gently with distilled water. Anesthesia was maintained with 0.1 ml pentobarbital (15 mg/ml) along the experiment. […] Blood samples were taken from the tail vein into heparanized tubes at t=0, 1, 2, 3, 4, 5, 7 and 9 hours from the time of application.
After centrifugation, plasma were analyzed for APAP by EMIT kit (Serum Tox EIA Assay, Diagnostic Reagents, Inc.).

For series [4] the following is noted: cited from earlier work.

For `O=C(O)Cc1ccccc1Nc1c(Cl)cccc1Cl` [diclofenac], the “higher dose of diclofenac delivered vs regular application of Voltaren Emulgel” value in series [1] amounted to 12 fold.

For the compound `Cn1c(=O)c2[nH]cnc2n(C)c1=O` [theophylline], in series [2], the “duration of therapeutic concentrations” value is recorded as “up to 3 days”.

`CC(=O)Nc1ccc(O)cc1` [APAP, Acetaminophen]: the “systemic penetration (plasma APAP)” value in series [3] is on record as “significant increase in penetration”. In series [4] (in vivo), the Volume of distribution was 0.95 L/kg, the “binding to plasma proteins” value is listed as 20% and the effective plasma concentrations is 10 to 20 µg/mL. For the same compound, the “plasma elimination half life” value in series [4] (similar in children and adults) is “about 2 hours”. Besides, in series [4] (therapeutic doses), the “drug recovered in the urine” value is listed as 90-100%, the “recovered in urine conjugated with cysteine” value is “about 2%”, the “recovered in urine conjugated with glucuronic acid” value is “about 60%” and the “recovered in urine conjugated with sulfuric acid” value is recorded as “about 35%”. Besides, the “unchanged APAP in urine” value in series [4] (therapeutic doses) was “about 2%”.
